Results: PubChem BioAssay (NCI)
“And” between values parts separate entries of the source, which are not always exact repeats. Equal values may be shown once.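 Tested at 5 concentrations; 48 h exposure; 96-well plates; endpoints linearly interpolated, else capped at highest concentration. GI50: concentration for 50% inhibition of growth. TGI marks complete inhibition of growth.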

Experiments:
Assay in all cases: inhibition of tumour cell growth, NCI panel, 48 h
NCI-H460 lung = test system: NCI-H460 lung
MDA-MB-231 breast = test system: MDA-MB-231 breast
HS 578T breast = test system: HS 578T breast
SF-295 CNS = test system: SF-295 CNS
KM12 colon = test system: KM12 colon
HCT-116 colon = test system: HCT-116 colon
SF-268 CNS = test system: SF-268 CNS
COLO 205 colon = test system: COLO 205 colon
MDA-MB-435 = test system: MDA-MB-435
PC-3 prostate = test system: PC-3 prostate

Structure (SMILES): O=C(Cc1ccccc1)NN1C(=O)/C(=C\c2ccccc2)SC1=Nc1ccccc1
- TGI (NCI-H460 lung): > 100 µM
- TGI (MDA-MB-231 breast): > 100 µM
- TGI (HS 578T breast): > 100 µM
- TGI (SF-295 CNS): > 100 µM
- TGI (KM12 colon): > 100 µM
- TGI (HCT-116 colon): > 100 µM
- TGI (SF-268 CNS): > 100 µM
- TGI (COLO 205 colon): > 100 µM
- TGI (MDA-MB-435): > 100 µM

Structure (SMILES): CC(=O)O[C@H]1C(=O)[C@@]2(C)[C@H]([C@H](OC(=O)c3ccc(F)cc3)[C@]3(O)C[C@H](OC(=O)[C@H](O)[C@@H](NC(=O)c4ccccc4)c4ccccc4)C(C)=C1C3(C)C)[C@]1(OC(C)=O)CO[C@@H]1C[C@@H]2O
- TGI (MDA-MB-231 breast): > 25 µM
- TGI (HS 578T breast): 0.0559 µM
- TGI (SF-295 CNS): > 6.59 µM
- TGI (KM12 colon): > 25 µM
- TGI (HCT-116 colon): 0.381 µM
- TGI (SF-268 CNS): > 25 µM
- TGI (COLO 205 colon): > 25 µM
- TGI (MDA-MB-435): 0.0049 µM

Structure (SMILES): O=C(CN(c1ccccc1)c1ccccc1)N1c2ccccc2C2C=CC=CC21 (stereo unspecified)
- TGI (NCI-H460 lung): 36.1 µM
- TGI (SF-295 CNS): 58.8 µM
- TGI (KM12 colon): 96.8 µM
- TGI (HCT-116 colon): 45.2 µM
- TGI (SF-268 CNS): > 57 µM
- TGI (COLO 205 colon): 24.7 µM

Structure (SMILES): O=C(Nc1ccccc1F)c1cc2ccc(O)cc2oc1=Nc1ccccc1F
- TGI (NCI-H460 lung): 6.18 µM
- TGI (HS 578T breast): 5.03 µM
- TGI (SF-295 CNS): 8.48 µM
- TGI (KM12 colon): 5.37 µM
- TGI (HCT-116 colon): 4.01 µM
- TGI (SF-268 CNS): 5.26 µM
- TGI (PC-3 prostate): 7.61 µM
- TGI (COLO 205 colon): 61.7 µM
- TGI (MDA-MB-435): 4.24 µM

Structure (SMILES): Cc1ccc([N+](=O)[O-])cc1N=NC(=O)NNc1cc([N+](=O)[O-])ccc1C
- TGI (MDA-MB-231 breast): 47.8 µM
- TGI (HS 578T breast): 55.6 µM
- TGI (SF-295 CNS): 40.9 µM
- TGI (KM12 colon): 49.3 µM
- TGI (HCT-116 colon): 36.8 µM
- TGI (PC-3 prostate): > 100 µM
- TGI (COLO 205 colon): > 100 µM
- TGI (MDA-MB-435): 53 µM

Structure (SMILES): CC1CN=C(N(C(=O)Nc2ccc(F)c(Cl)c2)c2ccccc2)S1 (stereo unspecified)
- TGI (NCI-H460 lung): 84.1 µM
- TGI (MDA-MB-231 breast): 38.9 µM
- TGI (HS 578T breast): > 100 µM
- TGI (SF-295 CNS): > 100 µM
- TGI (KM12 colon): 78.3 µM
- TGI (HCT-116 colon): 67.8 µM
- TGI (SF-268 CNS): > 100 µM
- TGI (PC-3 prostate): 95.5 µM
- TGI (COLO 205 colon): 38.9 µM

Structure (SMILES): Cc1c(N2C(=O)C(Cl)C2c2ccc(Cl)cc2)c(=O)n(-c2ccccc2)n1C (stereo unspecified)
- TGI (NCI-H460 lung): > 100 µM
- TGI (MDA-MB-231 breast): > 100 µM
- TGI (SF-295 CNS): > 100 µM
- TGI (KM12 colon): > 100 µM
- TGI (HCT-116 colon): 36 µM
- TGI (SF-268 CNS): > 100 µM
- TGI (PC-3 prostate): > 100 µM
- TGI (COLO 205 colon): > 100 µM
- TGI (MDA-MB-435): 59.8 µM

Structure (SMILES): CSc1c(C#N)c(N)n(-c2ccc(C)cc2)c(=O)c1C#N
- TGI (NCI-H460 lung): > 100 µM
- TGI (MDA-MB-231 breast): > 100 µM
- TGI (HS 578T breast): > 100 µM
- TGI (KM12 colon): > 100 µM
- TGI (HCT-116 colon): > 100 µM
- TGI (SF-268 CNS): > 100 µM
- TGI (PC-3 prostate): > 100 µM
- TGI (COLO 205 colon): > 100 µM
- TGI (MDA-MB-435): > 100 µM

Structure (SMILES): COc1ccc(-c2c3c([nH]c(=S)c2C#N)CC(C)(C)CC3=O)cc1
- TGI (NCI-H460 lung): > 100 µM
- TGI (MDA-MB-231 breast): > 100 µM
- TGI (HS 578T breast): > 100 µM
- TGI (SF-295 CNS): > 100 µM
- TGI (KM12 colon): > 100 µM
- TGI (HCT-116 colon): > 100 µM
- TGI (SF-268 CNS): > 100 µM
- TGI (PC-3 prostate): > 100 µM

Structure (SMILES): CC1(C)C2CC(=O)C1(C)C(O)C2Br (stereo unspecified)
- TGI (NCI-H460 lung): > 100 µM
- TGI (MDA-MB-231 breast): > 100 µM
- TGI (HS 578T breast): > 100 µM
- TGI (SF-295 CNS): > 100 µM
- TGI (KM12 colon): > 100 µM
- TGI (HCT-116 colon): > 100 µM
- TGI (SF-268 CNS): > 100 µM
- TGI (PC-3 prostate): > 100 µM
- TGI (MDA-MB-435): > 100 µM

Structure (SMILES): O=C(NCCCN(CCCCN(CCCNC(=O)C(F)(F)F)Cc1ccc2ccccc2c1)Cc1ccc2ccccc2c1)C(F)(F)F
- TGI (NCI-H460 lung): 23.7 µM
- TGI (MDA-MB-231 breast): > 100 µM
- TGI (SF-295 CNS): > 100 µM
- TGI (KM12 colon): > 100 µM
- TGI (HCT-116 colon): > 100 µM
- TGI (SF-268 CNS): > 100 µM
- TGI (PC-3 prostate): > 100 µM
- TGI (MDA-MB-435): 3.87 µM

Structure (SMILES): CCN(CC)CCCNC(=O)c1ccc([N+](=O)[O-])cc1O
- TGI (NCI-H460 lung): > 100 µM
- TGI (SF-295 CNS): > 100 µM
- TGI (KM12 colon): > 100 µM
- TGI (SF-268 CNS): > 100 µM
- TGI (COLO 205 colon): > 100 µM

Structure (SMILES): O=C(NC(COC(=O)C(Cc1ccccc1)NC(=O)c1ccccc1)Cc1ccccc1)c1ccccc1 (stereo unspecified)
- TGI (NCI-H460 lung): > 50 µM
- TGI (HS 578T breast): > 50 µM
- TGI (SF-295 CNS): > 50 µM
- TGI (KM12 colon): > 50 µM
- TGI (SF-268 CNS): > 50 µM
- TGI (PC-3 prostate): > 50 µM
- TGI (MDA-MB-435): > 50 µM

Structure (SMILES): Nc1nc(N)c(N=O)c(Nc2ccc(Br)cc2)n1
- TGI (NCI-H460 lung): > 100 µM
- TGI (SF-295 CNS): > 100 µM
- TGI (KM12 colon): > 100 µM
- TGI (HCT-116 colon): 37.8 µM
- TGI (SF-268 CNS): 57.1 µM
- TGI (COLO 205 colon): 38.8 µM

Structure (SMILES): O=c1ccn(C2OC(CO)C(P(=O)(O)O)C2O)c(=O)[nH]1 (stereo unspecified)
- TGI (NCI-H460 lung): > 100 µM
- TGI (MDA-MB-231 breast): > 100 µM
- TGI (HS 578T breast): > 100 µM
- TGI (SF-295 CNS): > 100 µM
- TGI (KM12 colon): > 100 µM
- TGI (HCT-116 colon): > 100 µM
- TGI (SF-268 CNS): > 100 µM
- TGI (PC-3 prostate): > 100 µM

Structure (SMILES): N=C(N)c1ccc(-c2ccc(-c3cccs3)s2)cc1
- GI50 (MDA-MB-231 breast): 1.64 µM
- TGI (MDA-MB-231 breast): 3.28 µM
- GI50 (HS 578T breast): 2.99 µM
- TGI (HS 578T breast): 9.62 µM
- GI50 (SF-268 CNS): 1.87 µM
- TGI (SF-268 CNS): 4.41 µM
- GI50 (PC-3 prostate): 1.62 µM
- TGI (PC-3 prostate): 3.15 µM

Structure (SMILES): COc1cc2c(cc1OC)[C@H]1CN3CCC[C@H]3C=C1c1ccc(OC)c(O)c1-2
- TGI (NCI-H460 lung): 0.00509 µM and 0.0106 µM
- TGI (MDA-MB-231 breast): 0.0523 µM
- TGI (HS 578T breast): 0.00677 µM
- TGI (SF-295 CNS): 0.00039 µM
- TGI (KM12 colon): 0.00183 µM
- TGI (HCT-116 colon): 0.00302 µM
- TGI (PC-3 prostate): 0.0269 µM
- TGI (COLO 205 colon): 0.00119 µM
- TGI (MDA-MB-435): 0.0269 µM

Structure (SMILES): O=C1NCC(NC(=O)C(F)(F)F)c2c(Br)sc(Br)c21 (stereo unspecified)
- TGI (NCI-H460 lung): > 100 µM
- TGI (MDA-MB-231 breast): > 100 µM
- TGI (SF-295 CNS): > 100 µM
- TGI (KM12 colon): > 100 µM
- TGI (HCT-116 colon): > 100 µM
- TGI (SF-268 CNS): > 100 µM
- TGI (PC-3 prostate): > 100 µM
- TGI (COLO 205 colon): > 100 µM
- TGI (MDA-MB-435): > 100 µM

Structure (SMILES): CCOC(=O)C1(C(=O)OCC)COS(=O)OC1
- TGI (NCI-H460 lung): > 100 µM
- TGI (MDA-MB-231 breast): 35.3 µM
- TGI (HS 578T breast): > 100 µM
- TGI (SF-295 CNS): > 100 µM
- TGI (KM12 colon): > 100 µM
- TGI (HCT-116 colon): 31.2 µM
- TGI (PC-3 prostate): > 100 µM
- TGI (COLO 205 colon): 54.5 µM
- TGI (MDA-MB-435): > 100 µM

Structure (SMILES): O=C1NCCS(=O)(=O)N[C@@H](CC2=CC=CCC2)C(=O)N2CCCC12 (stereo partly specified)
- TGI (NCI-H460 lung): > 100 µM
- TGI (SF-295 CNS): > 100 µM
- TGI (KM12 colon): > 100 µM
- TGI (HCT-116 colon): > 100 µM
- TGI (SF-268 CNS): > 100 µM
- TGI (COLO 205 colon): > 100 µM

Structure (SMILES): O=C1Sc2ccccc2C(=O)N2CSCC12 (stereo unspecified)
- TGI (NCI-H460 lung): > 100 µM
- TGI (SF-295 CNS): > 100 µM
- TGI (KM12 colon): > 100 µM
- TGI (HCT-116 colon): > 100 µM
- TGI (SF-268 CNS): > 100 µM
- TGI (COLO 205 colon): > 100 µM

Structure (SMILES): C[C@@H](Cl)[C@H]1CCCN(Cc2ccc(Br)cc2)C1
- TGI (NCI-H460 lung): > 12.5 µM
- TGI (MDA-MB-231 breast): > 12.5 µM
- TGI (HS 578T breast): > 12.5 µM
- TGI (SF-295 CNS): > 12.5 µM
- TGI (KM12 colon): > 12.5 µM
- TGI (SF-268 CNS): > 12.5 µM
- TGI (PC-3 prostate): > 12.5 µM
- TGI (COLO 205 colon): > 12.5 µM
- TGI (MDA-MB-435): > 12.5 µM

Structure (SMILES): C=Cc1ccc(C)[n+](C[Si](C)(C)O[Si](C)(C)C[n+]2cc(C=C)ccc2C)c1
- TGI (NCI-H460 lung): > 100 µM
- TGI (SF-295 CNS): > 100 µM
- TGI (KM12 colon): > 100 µM
- TGI (HCT-116 colon): > 100 µM
- TGI (SF-268 CNS): > 100 µM
- TGI (COLO 205 colon): > 100 µM

Structure (SMILES): O=c1[nH]cnc(NC2C=C(CO)C(O)C2O)c1[N+](=O)[O-] (stereo unspecified)
- TGI (NCI-H460 lung): > 58.2 µM
- TGI (SF-295 CNS): > 100 µM
- TGI (KM12 colon): > 100 µM
- TGI (HCT-116 colon): > 53.1 µM
- TGI (SF-268 CNS): > 100 µM
- TGI (COLO 205 colon): > 100 µM
